Test in all cases: Growth inhibitory activity of compounds on BaF3 cell lines stably transfected with kinase (MTS, 48 h)
Holding throughout (format): cell-based

The target in assay [1] is T1, various mutants of kinase EGFR (BaF3 cell lines stably transfected with kinase) (Homo sapiens, UniProt P00533, T790M/C797S, form not given).
T1 construct: other: BaF3 cells stably transfected with EGFR Δ19Del/T790M/C797S; MTS, 48; other: BaF3 cell line stably transfected with EGFR Δ19Del/T790M/C7
The note with it: BaF3 cells stably transfected with EGFR Δ19Del/T790M/C797S, read-out: IC50, growth inhibition, Δ19Del/T790M/C797S. The procedure:
(§1) The activity of compounds against various mutants of kinase EGFR was evaluated by their effect of inhibiting growth of BaF3 cell lines stably transfected with kinase. The specific test method was given as follows:
(§2) 1) Culture medium: DMEM (Dulbecco’s modified eagle medium) or RPMI 1640 (containing 10% fetal bovine serum, 100 µg/mL ampicillin, 100 µg/mL streptomycin).
(§3) 2) Reagent: MTS reaction solution (containing 2 mg/mL of MTS [3-(4,5-dimethylthiazol-2-yl)-5-(3-carboxymethoxyphenyl)-2-(4-sulfophenyl)-2H-tetrazoliu m, inner Salt]; 100 µg/mL of PES ([…])).
(§4) 3) Compound test: cells were incubated into a 96-well culture plate, the volume of cytosol was 90 µL, and then 10 µL of the compound at each gradient concentration was added. That is, the highest concentration was 10 µM, which was diluted stepwise by ⅓, and 8 concentration points were set in total; 0.1% DMSO (dimethyl sulfoxide) was contained in the system. The cell plate with uniformly mixed compound was cultured in a cell culture incubator (37° C.; 5% CO2) for 48 h, then 20 µL of MTS reaction solution was added, uniformly mixed and incubated in the cell culture incubator (37° C.; 5% CO2) for 1-4 h. OD values at 490 nm were measured by a microplate reader (VARIOSKAN FLASH, Thermo). Two parallels were set in each group of experiments, with 0.1% (a final concentration) DMSO as a negative control, and a culture medium without cells and compounds as a blank control. The cell growth inhibition rate was calculated by the following formula: […]
(§5) 4) IC50 calculation: The semi-inhibitory concentration of the compounds acting on cells was calculated using GradPad Prism 5 software according to the measured cell growth inhibition rate.

Assay [2] deals with T2, various mutants of kinase EGFR (BaF3 cell lines stably transfected with kinase) (Homo sapiens, UniProt P00533, L858R/T790M).
T2 construct: expressed in transfected cells; host or cells: BaF3
The conditions noted are these: BaF3 cells stably transfected with EGFR L858R/T790M, read-out: IC50, growth inhibition, L858R/T790M. The procedure:
as §1, §2, §3, §4, §5

Assay [3] deals with T3, various mutants of kinase EGFR (BaF3 cell lines stably transfected with kinase) (Homo sapiens, UniProt P00533, T790M, form not given).
T3 construct: other: BaF3 cells stably transfected with EGFR Δ19Del/T790M; MTS, 48 h; other: BaF3 cell line stably transfected with EGFR Δ19Del/T790M; MTS, 48
The conditions noted are these: BaF3 cells stably transfected with EGFR Δ19Del/T790M, read-out: IC50, growth inhibition, Δ19Del/T790M. The procedure:
as §1, §2, §3, §4, §5

Assay [4] concerns the target T4, various mutants of kinase EGFR (BaF3 cell lines stably transfected with kinase) (Homo sapiens, UniProt P00533, L858R).
T4 construct: expressed in transfected cells; host or cells: BaF3
The conditions noted are these: BaF3 cells stably transfected with EGFR L858R, read-out: IC50, growth inhibition, L858R. The procedure:
as §1, §2, §3, §4, §5

The target of assay [5] is T5, various mutants of kinase EGFR (BaF3 cell lines stably transfected with kinase) (Homo sapiens, UniProt P00533).
T5 construct: other: BaF3 cells stably transfected with EGFR Δ19Del; MTS, 48 h; other: BaF3 cell line stably transfected with EGFR Δ19Del
The conditions noted are these: BaF3 cells stably transfected with EGFR Δ19Del, read-out: IC50, growth inhibition, Δ19Del. The procedure: as §1, §2, §3, §4, §5

For assay [6], the target named is T6, various mutants of kinase EGFR (BaF3 cell lines stably transfected with kinase) (Homo sapiens, UniProt P00533, C797S/L858R/T790M).
T6 construct: expressed in transfected cells; host or cells: BaF3
The conditions noted are these: BaF3 cells stably transfected with EGFR L858R/T790M/C797S, read-out: IC50, growth inhibition, L858R/T790M/C797S. The procedure: as §1, §2, §3, §4, §5

T6 sequence (P00533 25-1210 T790M/C797S/L858R): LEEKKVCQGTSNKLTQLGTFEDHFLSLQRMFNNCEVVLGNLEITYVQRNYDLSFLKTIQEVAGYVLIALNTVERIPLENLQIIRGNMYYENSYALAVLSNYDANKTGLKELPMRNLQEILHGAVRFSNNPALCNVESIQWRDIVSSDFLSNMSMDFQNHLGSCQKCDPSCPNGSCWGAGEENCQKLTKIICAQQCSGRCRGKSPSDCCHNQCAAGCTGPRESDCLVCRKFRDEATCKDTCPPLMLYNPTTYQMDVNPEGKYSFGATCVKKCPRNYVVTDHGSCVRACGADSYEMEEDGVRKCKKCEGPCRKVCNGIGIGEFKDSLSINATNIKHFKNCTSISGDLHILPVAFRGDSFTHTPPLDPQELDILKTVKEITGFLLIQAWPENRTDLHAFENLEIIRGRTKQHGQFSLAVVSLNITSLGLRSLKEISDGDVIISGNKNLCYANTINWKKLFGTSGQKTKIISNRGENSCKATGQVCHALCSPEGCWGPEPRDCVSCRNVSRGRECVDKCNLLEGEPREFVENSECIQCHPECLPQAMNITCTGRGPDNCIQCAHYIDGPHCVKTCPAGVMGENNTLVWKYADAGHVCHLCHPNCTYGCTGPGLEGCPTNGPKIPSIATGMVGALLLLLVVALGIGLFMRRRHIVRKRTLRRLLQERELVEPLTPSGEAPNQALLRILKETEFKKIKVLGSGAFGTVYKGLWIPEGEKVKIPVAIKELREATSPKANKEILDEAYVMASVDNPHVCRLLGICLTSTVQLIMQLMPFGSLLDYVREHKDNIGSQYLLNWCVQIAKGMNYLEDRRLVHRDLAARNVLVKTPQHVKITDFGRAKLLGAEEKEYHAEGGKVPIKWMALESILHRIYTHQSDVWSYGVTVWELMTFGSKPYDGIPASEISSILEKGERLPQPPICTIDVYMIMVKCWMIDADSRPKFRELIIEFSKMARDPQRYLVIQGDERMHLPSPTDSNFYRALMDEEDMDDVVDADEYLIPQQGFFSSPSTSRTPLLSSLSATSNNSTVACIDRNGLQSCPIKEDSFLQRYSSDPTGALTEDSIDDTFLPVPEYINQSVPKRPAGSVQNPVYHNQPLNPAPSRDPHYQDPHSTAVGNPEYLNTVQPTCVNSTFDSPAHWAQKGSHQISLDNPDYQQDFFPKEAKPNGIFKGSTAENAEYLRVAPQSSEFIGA
T1 sequence (P00533 with tags, fused parts or gaps DEL746-750/T790M/C797S, form open): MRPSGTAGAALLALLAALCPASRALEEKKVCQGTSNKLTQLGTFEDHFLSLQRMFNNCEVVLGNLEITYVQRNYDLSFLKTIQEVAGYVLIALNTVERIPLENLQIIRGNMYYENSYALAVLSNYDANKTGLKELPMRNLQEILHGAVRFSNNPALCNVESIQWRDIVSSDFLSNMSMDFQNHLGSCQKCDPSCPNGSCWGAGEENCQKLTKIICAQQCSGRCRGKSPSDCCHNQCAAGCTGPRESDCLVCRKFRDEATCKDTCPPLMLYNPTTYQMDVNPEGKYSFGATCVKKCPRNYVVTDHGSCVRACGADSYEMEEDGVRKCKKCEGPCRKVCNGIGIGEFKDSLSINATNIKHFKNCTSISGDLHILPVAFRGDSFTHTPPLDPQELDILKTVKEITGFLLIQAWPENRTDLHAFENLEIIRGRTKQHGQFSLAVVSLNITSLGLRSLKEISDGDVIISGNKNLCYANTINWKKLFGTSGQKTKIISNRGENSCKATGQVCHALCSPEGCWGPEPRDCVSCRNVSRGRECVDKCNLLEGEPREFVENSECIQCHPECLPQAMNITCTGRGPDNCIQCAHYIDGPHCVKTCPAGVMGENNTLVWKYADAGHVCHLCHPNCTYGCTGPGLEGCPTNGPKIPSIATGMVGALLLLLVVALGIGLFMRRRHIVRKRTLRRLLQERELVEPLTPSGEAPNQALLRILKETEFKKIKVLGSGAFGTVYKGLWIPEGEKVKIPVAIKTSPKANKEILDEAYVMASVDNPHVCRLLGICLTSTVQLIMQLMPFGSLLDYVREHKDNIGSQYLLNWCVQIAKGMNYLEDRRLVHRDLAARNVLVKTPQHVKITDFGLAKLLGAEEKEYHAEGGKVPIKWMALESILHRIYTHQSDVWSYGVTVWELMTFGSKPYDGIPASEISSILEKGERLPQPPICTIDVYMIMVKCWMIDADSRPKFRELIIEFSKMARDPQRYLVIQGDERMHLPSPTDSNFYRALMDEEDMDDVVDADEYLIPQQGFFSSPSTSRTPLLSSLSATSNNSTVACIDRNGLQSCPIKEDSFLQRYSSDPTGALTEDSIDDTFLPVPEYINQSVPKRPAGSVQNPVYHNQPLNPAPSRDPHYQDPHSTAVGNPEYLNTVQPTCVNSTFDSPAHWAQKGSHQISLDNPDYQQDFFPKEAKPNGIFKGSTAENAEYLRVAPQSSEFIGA
T5 sequence (P00533 with tags, fused parts or gaps DEL746-750): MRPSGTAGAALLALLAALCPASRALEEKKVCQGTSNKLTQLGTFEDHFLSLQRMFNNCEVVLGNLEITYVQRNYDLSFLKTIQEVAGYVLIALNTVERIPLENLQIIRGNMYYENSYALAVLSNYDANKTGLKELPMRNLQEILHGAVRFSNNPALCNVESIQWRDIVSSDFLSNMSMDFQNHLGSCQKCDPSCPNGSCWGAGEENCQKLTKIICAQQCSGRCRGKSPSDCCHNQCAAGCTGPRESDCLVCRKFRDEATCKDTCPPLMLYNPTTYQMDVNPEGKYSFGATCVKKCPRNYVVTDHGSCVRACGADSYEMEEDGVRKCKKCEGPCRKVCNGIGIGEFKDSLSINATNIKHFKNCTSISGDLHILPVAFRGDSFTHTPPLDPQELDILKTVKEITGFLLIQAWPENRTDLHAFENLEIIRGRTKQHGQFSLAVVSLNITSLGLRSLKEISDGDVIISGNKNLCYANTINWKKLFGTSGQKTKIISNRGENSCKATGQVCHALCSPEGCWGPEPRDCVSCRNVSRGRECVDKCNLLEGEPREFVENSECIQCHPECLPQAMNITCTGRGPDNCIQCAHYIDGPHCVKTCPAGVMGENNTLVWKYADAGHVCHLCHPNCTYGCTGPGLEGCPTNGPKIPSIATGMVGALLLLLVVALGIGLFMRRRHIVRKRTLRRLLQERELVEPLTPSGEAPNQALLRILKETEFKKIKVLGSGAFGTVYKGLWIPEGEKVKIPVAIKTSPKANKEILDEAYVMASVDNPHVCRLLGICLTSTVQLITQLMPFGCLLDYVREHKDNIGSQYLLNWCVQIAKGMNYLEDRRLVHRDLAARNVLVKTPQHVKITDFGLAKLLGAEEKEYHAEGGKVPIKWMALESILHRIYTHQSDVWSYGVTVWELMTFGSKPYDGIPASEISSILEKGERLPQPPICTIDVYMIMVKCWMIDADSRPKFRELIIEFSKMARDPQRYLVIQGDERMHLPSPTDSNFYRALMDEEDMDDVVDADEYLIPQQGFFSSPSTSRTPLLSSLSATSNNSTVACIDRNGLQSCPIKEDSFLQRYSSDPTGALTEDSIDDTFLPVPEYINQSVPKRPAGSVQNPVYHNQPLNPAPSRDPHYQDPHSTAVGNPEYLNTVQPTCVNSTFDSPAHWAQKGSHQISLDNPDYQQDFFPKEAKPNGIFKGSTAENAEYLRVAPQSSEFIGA
T2 sequence (P00533 25-1210 T790M/L858R): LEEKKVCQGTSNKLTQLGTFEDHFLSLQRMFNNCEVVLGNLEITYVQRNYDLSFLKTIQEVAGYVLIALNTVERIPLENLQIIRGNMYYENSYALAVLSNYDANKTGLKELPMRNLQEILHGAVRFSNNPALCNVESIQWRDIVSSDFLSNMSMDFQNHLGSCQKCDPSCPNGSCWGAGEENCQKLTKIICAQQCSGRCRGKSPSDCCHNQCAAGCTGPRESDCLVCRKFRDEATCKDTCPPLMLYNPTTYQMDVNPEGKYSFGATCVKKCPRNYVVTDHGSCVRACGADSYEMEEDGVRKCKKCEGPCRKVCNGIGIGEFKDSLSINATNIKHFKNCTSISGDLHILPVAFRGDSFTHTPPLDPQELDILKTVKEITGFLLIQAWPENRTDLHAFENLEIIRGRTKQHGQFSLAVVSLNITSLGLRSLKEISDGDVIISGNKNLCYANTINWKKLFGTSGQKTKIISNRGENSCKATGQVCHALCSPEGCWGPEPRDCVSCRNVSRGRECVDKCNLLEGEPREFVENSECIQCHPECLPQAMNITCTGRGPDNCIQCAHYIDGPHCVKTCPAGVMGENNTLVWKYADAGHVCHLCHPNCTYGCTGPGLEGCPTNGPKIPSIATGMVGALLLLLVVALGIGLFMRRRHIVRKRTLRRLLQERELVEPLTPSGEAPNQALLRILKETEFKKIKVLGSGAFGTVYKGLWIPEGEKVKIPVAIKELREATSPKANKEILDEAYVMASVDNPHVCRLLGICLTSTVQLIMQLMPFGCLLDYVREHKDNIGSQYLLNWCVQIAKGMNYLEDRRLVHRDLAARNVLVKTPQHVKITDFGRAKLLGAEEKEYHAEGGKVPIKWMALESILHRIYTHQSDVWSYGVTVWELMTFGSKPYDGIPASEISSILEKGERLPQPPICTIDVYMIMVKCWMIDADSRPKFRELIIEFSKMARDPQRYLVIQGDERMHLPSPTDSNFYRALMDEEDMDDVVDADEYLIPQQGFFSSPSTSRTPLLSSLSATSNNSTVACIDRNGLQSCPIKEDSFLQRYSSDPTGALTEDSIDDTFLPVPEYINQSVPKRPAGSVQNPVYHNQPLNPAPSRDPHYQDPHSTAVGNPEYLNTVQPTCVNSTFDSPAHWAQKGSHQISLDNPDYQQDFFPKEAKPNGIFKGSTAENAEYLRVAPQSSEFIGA

For the compound `COc1cc(N2CCOCC2)ccc1Nc1ncc(Br)c(Nc2ccc3nccnc3c2N(C)S(C)(=O)=O)n1` [Compound I-45], the IC50 is no more than 0.05 µM in assay [1]; 0.05 to 0.5 µM in assay [2]; 0.05 to 0.5 µM in assay [3]; 0.05 to 0.5 µM in assay [4]; 0.05 to 0.5 µM in assay [5]; no more than 0.05 µM in assay [6].
Regarding `COc1cc(C(=O)N2CCC(N3CCN(C)CC3)CC2)ccc1Nc1ncc(Br)c(Nc2ccc3nccnc3c2N(C)S(C)(=O)=O)n1` [Compound I-48], the IC50 in assay [1] was no more than 0.05 µM; in assay [2], 0.05 to 0.5 µM; in assay [3], 0.05 to 0.5 µM; in assay [4] it was 0.05 to 0.5 µM; in assay [5], 0.05 to 0.5 µM; in assay [6], no more than 0.05 µM.
With `CN1CCN(S(=O)(=O)c2ccc(Nc3ncc(Br)c(Nc4ccc5nccnc5c4N(C)S(C)(=O)=O)n3)cc2)CC1` [Compound I-49], the IC50 in assay [1], in assay [2], in assay [3], in assay [4], in assay [5] and in assay [6] was 0.05 to 0.5 µM throughout.
Consider `CN(c1c(Nc2nc(Nc3ccc(S(=O)(=O)NC4CC4)cc3)ncc2Br)ccc2nccnc12)S(C)(=O)=O` [Compound I-50], for which the IC50 in assay [1] was 0.5 to 2.5 µM; in assay [2] it was no more than 0.05 µM; in assay [3], 0.05 to 0.5 µM; in assay [4], 0.05 to 0.5 µM; in assay [5] it was 0.05 to 0.5 µM; in assay [6], 0.05 to 0.5 µM.
As to `COc1nc(N2CCN(C)CC2)ccc1Nc1ncc(Br)c(Nc2ccc3nccnc3c2N(C)S(C)(=O)=O)n1` [Compound I-55], the IC50 in assay [1], in assay [2], in assay [3], in assay [4], in assay [5] and in assay [6] was 0.05 to 0.5 µM in each case.
As for `CN1CCN(c2ccc(Nc3ncc(Br)c(Nc4ccc5nccnc5c4N(C)S(C)(=O)=O)n3)cn2)CC1` [Compound I-56], the IC50 in assay [1], in assay [2], in assay [3], in assay [4], in assay [5] and in assay [6] was no more than 0.05 µM in each case.
With `Cc1ccc(Nc2ncc(Br)c(Nc3ccc4nccnc4c3N(C)S(C)(=O)=O)n2)cn1` [Compound I-63], the IC50 was 0.05 to 0.5 µM in assay [1]; no more than 0.05 µM in assay [2]; no more than 0.05 µM in assay [3]; 0.05 to 0.5 µM in assay [4]; no more than 0.05 µM in assay [5]; 0.05 to 0.5 µM in assay [6].
As for `CN(c1c(Nc2nc(Nc3ccn(C)n3)ncc2Br)ccc2nccnc12)S(C)(=O)=O` [Compound I-66], the IC50 in assay [1] was 0.05 to 0.5 µM; in assay [2], no more than 0.05 µM; in assay [3], 0.05 to 0.5 µM; in assay [4] it was 0.05 to 0.5 µM; in assay [5], 0.05 to 0.5 µM; in assay [6] it was 0.05 to 0.5 µM.
Turning to `CN(c1c(Nc2nc(Nc3cnn(C)c3)ncc2Br)ccc2nccnc12)S(C)(=O)=O` [Compound I-67], the IC50 in assay [1] is 0.05 to 0.5 µM; in assay [2] it was no more than 0.05 µM; in assay [3] it was no more than 0.05 µM; in assay [4], 0.05 to 0.5 µM; in assay [5] it was no more than 0.05 µM; in assay [6], no more than 0.05 µM.
Take `CN(c1c(Nc2nc(NC3CC3)ncc2Br)ccc2nccnc12)S(C)(=O)=O` [Compound I-73]: the IC50 lay within 0.5 to 2.5 µM in assay [1]; 0.05 to 0.5 µM in assay [2]; 0.05 to 0.5 µM in assay [3]; 0.5 to 2.5 µM in assay [4]; 0.5 to 2.5 µM in assay [5]; 0.5 to 2.5 µM in assay [6].
`CN(c1c(Nc2nc(Nc3cccc(N4CCC(O)CC4)c3)ncc2Br)ccc2nccnc12)S(C)(=O)=O` [Compound I-76]: the IC50 in assay [1] was 0.05 to 0.5 µM; in assay [2], no more than 0.05 µM; in assay [3], 0.05 to 0.5 µM; in assay [4] it was 0.5 to 2.5 µM; in assay [5], 0.05 to 0.5 µM; in assay [6], no more than 0.05 µM.
As for `COc1ccc(N2CCC(O)CC2)cc1Nc1ncc(Br)c(Nc2ccc3nccnc3c2N(C)S(C)(=O)=O)n1` [Compound I-77], the IC50 in assay [1] is no more than 0.05 µM; in assay [2], no more than 0.05 µM; in assay [3] it was no more than 0.05 µM; in assay [4], 0.05 to 0.5 µM; in assay [5] it was 0.05 to 0.5 µM; in assay [6], no more than 0.05 µM.
For `CN1CCN(C2CCN(c3cccc(Nc4ncc(Br)c(Nc5ccc6nccnc6c5N(C)S(C)(=O)=O)n4)c3)CC2)CC1` [Compound I-78], the IC50 in assay [1] is 0.05 to 0.5 µM; in assay [2] it was no more than 0.05 µM; in assay [3], 0.05 to 0.5 µM; in assay [4], 0.05 to 0.5 µM; in assay [5], 0.05 to 0.5 µM; in assay [6], no more than 0.05 µM.
On to `CN1CCN(C(=O)c2cccc(Nc3ncc(Br)c(Nc4ccc5nccnc5c4N(C)S(C)(=O)=O)n3)c2)CC1` [Compound I-80], for which the IC50 in assay [1] is 0.5 to 2.5 µM; in assay [2] it was no more than 0.05 µM; in assay [3], 0.05 to 0.5 µM; in assay [4] it was 0.05 to 0.5 µM; in assay [5] it was 0.05 to 0.5 µM; in assay [6], 0.05 to 0.5 µM.
Turning to `COc1ccc(C(=O)N2CCN(C)CC2)cc1Nc1ncc(Br)c(Nc2ccc3nccnc3c2N(C)S(C)(=O)=O)n1` [Compound I-81], the IC50 in assay [1] is 0.5 to 2.5 µM; in assay [2], 0.05 to 0.5 µM; in assay [3], 0.05 to 0.5 µM; in assay [4], 0.5 to 2.5 µM; in assay [5], 0.05 to 0.5 µM; in assay [6], 0.05 to 0.5 µM.
In the case of `CN1CCN(Cc2cc(Nc3ncc(Br)c(Nc4ccc5nccnc5c4N(C)S(C)(=O)=O)n3)cc(C(F)(F)F)c2)CC1` [Compound I-82], the IC50 in assay [1] was 0.05 to 0.5 µM; in assay [2], no more than 0.05 µM; in assay [3], 0.05 to 0.5 µM; in assay [4], 0.05 to 0.5 µM; in assay [5] it was 0.05 to 0.5 µM; in assay [6], 0.05 to 0.5 µM.
For `COc1ccc(CN2CCN(C)CC2)cc1Nc1ncc(Br)c(Nc2ccc3nccnc3c2N(C)S(C)(=O)=O)n1` [Compound I-83], the IC50 in assay [1] was 0.5 to 2.5 µM; in assay [2] it was 0.05 to 0.5 µM; in assay [3], 0.5 to 2.5 µM; in assay [4], 0.05 to 0.5 µM; in assay [5], 0.05 to 0.5 µM; in assay [6], 0.5 to 2.5 µM.
For `CN1CCN(Cc2cccc(Nc3ncc(Br)c(Nc4ccc5nccnc5c4N(C)S(C)(=O)=O)n3)c2)CC1` [Compound I-84], the IC50 is 0.05 to 0.5 µM in assay [1]; no more than 0.05 µM in assay [2]; 0.05 to 0.5 µM in assay [3]; no more than 0.05 µM in assay [4]; 0.05 to 0.5 µM in assay [5]; 0.05 to 0.5 µM in assay [6].
On to `COc1ccc(NC(=O)CN(C)C)cc1Nc1ncc(Br)c(Nc2ccc3nccnc3c2N(C)S(C)(=O)=O)n1` [Compound I-85], for which the IC50 in assay [1], in assay [2], in assay [3], in assay [4], in assay [5] and in assay [6] was 0.05 to 0.5 µM each time.
For `CN1CCc2cc(F)c(Nc3ncc(Br)c(Nc4ccc5nccnc5c4N(C)S(C)(=O)=O)n3)cc2C1` [Compound I-87], the IC50 in assay [1] was no more than 0.05 µM; in assay [2], 0.05 to 0.5 µM; in assay [3], 0.05 to 0.5 µM; in assay [4], no more than 0.05 µM; in assay [5], no more than 0.05 µM; in assay [6] it was no more than 0.05 µM.
With `COc1cc2c(cc1Nc1ncc(Br)c(Nc3ccc4nccnc4c3N(C)S(C)(=O)=O)n1)CN(C)CC2` [Compound I-89], the IC50 in assay [1] was 0.5 to 2.5 µM; in assay [2], 0.05 to 0.5 µM; in assay [3] it was 0.05 to 0.5 µM; in assay [4], 0.05 to 0.5 µM; in assay [5] it was 0.5 to 2.5 µM; in assay [6], 0.05 to 0.5 µM.

These data come from patent US20230310428A1, “EGFR INHIBITOR AND PREPARATION METHOD AND USE THEREOF” (HONGYUN BIOTECH CO., LTD., priority 2020, published 2023).
